# Measurements published in PubChem BioAssay AID1919002 (Molecular Pharmacology Branch, DTP, NCI, 2023).
# Values joined by “and” are separate entries in the source; they are usually repeats but may differ in a detail not shown here. Identical values can stand only once.
# Tested on: 743489-274-T-PDC complex spheroid growth
# Assay: Anticancer human tumor 743489-274-T-PDC patient-derived renal cell carcinoma cell line growth inhibition [AhR]
# Conditions: for viability, T/C: stronger effect = lower value
# Source text: Multicellular complex tumor spheroid response to aryl hydrocarbon receptor antagonists in combination with a variety of drugs and investigational agents in selected tumor cell lines
# The current study was undertaken to assess response to aryl hydrocarbon receptor antagonists in combination with standard-of-care drugs and investigational agents in solid tumor complex spheroid models. Complex spheroids include a stromal component modeled by human endothelial cells (HUVEC) and fibroblasts modeled by human mesenchymal stem cells (MSCs). The concentration ranges selected for each drug and investigational agent were based upon clinically achievable concentrations if the clinical Cmax of the agent was known.
# Compounds. The drugs and investigational agents: BAY 2416964 (NSC825713), GNF351 (NSC835774), CH-223191 (NSC835775), CPI-455 (NSC825282), aza-TdCyd (NSC777586), decitabine (NSC127716), belinostat (NSC758774), entinostat (NSC756642), pevonedistat (NSC761192), tazemetostat (NSC777109), talazoparib (NSC765396), olaparib (NSC753686), selinexor (NSC780203), nedisertib (M3814, NSC802822), bortezomib (NSC756655), venetoclax (NSC766270), doxorubicin (NSC123127), elimusertib (BAY189344, NSC800525), ceralasertib (AZD6738, NSC777638), TAK-243 (NSC785004), alisertib (NSC759677), etoposide (NSC141540), topotecan (NSC609699), eribulin (NSC707389), gemcitabine (NSC613327), carboplatin (NSC241240), cisplatin (NSC119875), and SN-38 (NSC673596) were obtained from the National Cancer Institute (NCI) Developmental Therapeutics Program Chemical Repository (32). The FDA-approved anticancer drug set is available from the Developmental Therapeutics Program at https://dtp.cancer.gov/organization/dscb/obtaining/available plates.htm. […] The stock solutions were prepared in dimethyl sulfoxide (DMSO, Sigma-Aldrich, St. Louis, MO, cat. D2650), except for the platinum compounds which were prepared in saline (Quality Biological, Gaithersburg, MD, cat. 114-055-101), at 800-fold the tested concentration and stored at -70 degrees C prior to their use. All drugs and investigational agents were tested over a range starting from a high concentration at or near the clinical Cmax and decreasing in half-log increments. If the clinical Cmax for an agent had not been determined, the highest concentration tested was 10 microM (Table 1).
# Cell Culture. All cells were maintained in an incubator at 37 degrees C and 5% CO2 with 95% humidity. The PDC lines were cultured according to standard operating procedures established by the NCI PDMR (https://pdmr.cancer.gov). Briefly, all PDCs were thawed and cultured in Matrigel-coated flasks prepared with a working solution of 1X Ham's F-12 nutrient mix, without supplementation (Invitrogen, Waltham, MA, cat. 11765054), 100 U/mL penicillin-streptomycin (Invitrogen, cat. 15140122), and 2.5% Matrigel (Corning Inc., Corning, NY, cat. 354248) for the first three passages. All PDCs were cultured in complete DMEM/F-12 media containing advanced DMEM/F-12 (Invitrogen, cat. 12634028), 4.9% defined fetal bovine serum, heat inactivated (HyClone Laboratories Inc., Logan, UT, cat. SH30070.03HI), 389 ng/mL hydrocortisone (Sigma-Aldrich, cat. H4001), 9.7 ng/mL human EGF recombinant protein (Invitrogen, cat. PHG0313), 23.4 microg/mL adenine (Sigma-Aldrich, cat. A2786), 97.3 U/mL penicillin-streptomycin (Invitrogen, cat. 15140122), 1.9 mM L-glutamine (Invitrogen, cat. 25030081), and 9.7 microM Y-27632 dihydrochloride (Tocris Bioscience, Bristol, United Kingdom, cat. 1254). The PDCs were cultured in complete DMEM/F12 media without 10 microM Y-27632 dihydrochloride for at least two passages prior to the screen. The established cell lines NCI-H1341 and […] were cultured in DMEM/F-12, HEPES (Invitrogen, cat. 11330032), 5% defined fetal bovine serum (HyClone Laboratories Inc., cat. SH30070.03), ITS premix universal culture supplement [insulin (5 microg/mL), transferrin (5 microg/mL), and selenious acid (5 ng/mL)] […]
# [1] = curve of first compound, second compound 0.1 µM
# [2] = curve of first compound, second compound 0.316 µM
# [3] = curve of first compound, second compound 1 µM
# [4] = curve of first compound, second compound 3.16 µM
# [5] = curve of first compound, second compound 10 µM
# [6] = second compound 0.1 µM, first compound 0.0316 µM
# [7] = second compound 0.1 µM, first compound 0.1 µM
# [8] = second compound 0.1 µM, first compound 0.316 µM
# [9] = second compound 0.1 µM, first compound 1 µM
# [10] = second compound 0.1 µM, first compound 3.16 µM
# [11] = second compound 0.1 µM, first compound 10 µM
# [12] = second compound 0.316 µM, first compound 0.0316 µM
# [13] = second compound 0.316 µM, first compound 0.1 µM
# [14] = second compound 0.316 µM, first compound 0.316 µM
# [15] = second compound 0.316 µM, first compound 1 µM
# [16] = second compound 0.316 µM, first compound 3.16 µM
# [17] = second compound 0.316 µM, first compound 10 µM
# [18] = second compound 1 µM, first compound 0.0316 µM
# [19] = second compound 1 µM, first compound 0.1 µM
# [20] = second compound 1 µM, first compound 0.316 µM
# [21] = second compound 1 µM, first compound 1 µM
# [22] = second compound 1 µM, first compound 3.16 µM
# [23] = second compound 1 µM, first compound 10 µM
# [24] = second compound 3.16 µM, first compound 0.0316 µM
# [25] = second compound 3.16 µM, first compound 0.1 µM
# [26] = second compound 3.16 µM, first compound 0.316 µM
# [27] = second compound 3.16 µM, first compound 1 µM
# [28] = second compound 3.16 µM, first compound 3.16 µM
# [29] = second compound 3.16 µM, first compound 10 µM
# [30] = second compound 10 µM, first compound 0.0316 µM
# [31] = second compound 10 µM, first compound 0.1 µM
# [32] = second compound 10 µM, first compound 0.316 µM
# [33] = second compound 10 µM, first compound 1 µM
# [34] = second compound 10 µM, first compound 3.16 µM
# [35] = second compound 10 µM, first compound 10 µM
# 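Also: spheroids exposed to agents for 7 days before readout.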
# 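For viability, T/C in this document: 100% = DMSO vehicle control wells.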
smiles,measurement,setting,value
CCN(c1cc(-c2ccc(CN3CCOCC3)cc2)cc(C(=O)NCc2c(C)cc(C)[nH]c2=O)c1C)C1CCOCC1,"viability, T/C",compound 0.00949 µM,107% and 101% and 108%
same,"viability, T/C",compound 0.03 µM,102% and 103% and 122%
same,"viability, T/C",compound 0.0949 µM,102% and 86.6% and 107%
same,"viability, T/C",compound 0.3 µM,102% and 99.9% and 101%
same,"viability, T/C",compound 0.949 µM,94.9% and 104% and 108%
same,"viability, T/C",compound 3 µM,102% and 91% and 101%
same,IC50,curve of compound,> 3 µM
Nc1ncn(C2CC(O)C(CO)S2)c(=O)n1 (centres undefined) + Cc1cncc(-c2nc(NCCc3c[nH]c4ccccc34)c3ncn(C(C)C)c3n2)c1,IC50,[1],> 0.3 µM
same,IC50,[2],> 0.3 µM
same,IC50,[3],> 0.3 µM
same,IC50,[4],> 0.3 µM
same,IC50,[5],> 0.3 µM
same,"viability, T/C","second compound 0.1 µM, first compound 0.000949 µM",107%
same,"viability, T/C","second compound 0.1 µM, first compound 0.003 µM",105%
same,"viability, T/C","second compound 0.1 µM, first compound 0.00949 µM",104%
same,"viability, T/C","second compound 0.1 µM, first compound 0.03 µM",95.8%
same,"viability, T/C","second compound 0.1 µM, first compound 0.0949 µM",96.5%
same,"viability, T/C","second compound 0.1 µM, first compound 0.3 µM",93.1%
same,"viability, T/C","second compound 0.316 µM, first compound 0.000949 µM",96.6%
same,"viability, T/C","second compound 0.316 µM, first compound 0.003 µM",99.8%
same,"viability, T/C","second compound 0.316 µM, first compound 0.00949 µM",104%
same,"viability, T/C","second compound 0.316 µM, first compound 0.03 µM",98.3%
same,"viability, T/C","second compound 0.316 µM, first compound 0.0949 µM",84.7%
same,"viability, T/C","second compound 0.316 µM, first compound 0.3 µM",101%
same,"viability, T/C","second compound 1 µM, first compound 0.000949 µM",108%
same,"viability, T/C","second compound 1 µM, first compound 0.003 µM",100%
same,"viability, T/C","second compound 1 µM, first compound 0.00949 µM",106%
same,"viability, T/C","second compound 1 µM, first compound 0.03 µM",106%
same,"viability, T/C","second compound 1 µM, first compound 0.0949 µM",98.8%
same,"viability, T/C","second compound 1 µM, first compound 0.3 µM",103%
same,"viability, T/C","second compound 3.16 µM, first compound 0.000949 µM",114%
same,"viability, T/C","second compound 3.16 µM, first compound 0.003 µM",106%
same,"viability, T/C","second compound 3.16 µM, first compound 0.00949 µM",119%
same,"viability, T/C","second compound 3.16 µM, first compound 0.03 µM",118%
same,"viability, T/C","second compound 3.16 µM, first compound 0.0949 µM",109%
same,"viability, T/C","second compound 3.16 µM, first compound 0.3 µM",96.2%
same,"viability, T/C","second compound 10 µM, first compound 0.000949 µM",138%
same,"viability, T/C","second compound 10 µM, first compound 0.003 µM",115%
same,"viability, T/C","second compound 10 µM, first compound 0.00949 µM",117%
same,"viability, T/C","second compound 10 µM, first compound 0.03 µM",124%
same,"viability, T/C","second compound 10 µM, first compound 0.0949 µM",112%
same,"viability, T/C","second compound 10 µM, first compound 0.3 µM",125%
COc1cc(Nc2ncc3c(n2)-c2ccc(Cl)cc2C(c2c(F)cccc2OC)=NC3)ccc1C(=O)O,"viability, T/C",compound 0.0316 µM,106% and 98.6% and 103%
same,"viability, T/C",compound 0.1 µM,105% and 95.3% and 116%
same,"viability, T/C",compound 0.316 µM,92% and 95.6% and 98.8%
same,"viability, T/C",compound 1 µM,91.3% and 90.4% and 99.3%
same,"viability, T/C",compound 3.16 µM,90.3% and 92.1% and 91.2%
same,"viability, T/C",compound 10 µM,102% and 87.5% and 94.5%
same,IC50,curve of compound,> 10 µM
COc1cc(Nc2ncc3c(n2)-c2ccc(Cl)cc2C(c2c(F)cccc2OC)=NC3)ccc1C(=O)O + Cc1ccccc1N=Nc1ccc(NC(=O)c2ccnn2C)c(C)c1,IC50,[1],> 10 µM
same,IC50,[2],> 10 µM
same,IC50,[3],> 10 µM
same,IC50,[4],> 10 µM
same,IC50,[5],> 10 µM
same,"viability, T/C",[6],93.3%
same,"viability, T/C",[7],93%
same,"viability, T/C",[8],86.6%
same,"viability, T/C",[9],87.5%
same,"viability, T/C",[10],95.4%
same,"viability, T/C",[11],79.8%
same,"viability, T/C",[12],91.4%
same,"viability, T/C",[13],88.1%
same,"viability, T/C",[14],79.9%
same,"viability, T/C",[15],77.2%
same,"viability, T/C",[16],87.1%
same,"viability, T/C",[17],90%
same,"viability, T/C",[18],93%
same,"viability, T/C",[19],98%
same,"viability, T/C",[20],75.5%
same,"viability, T/C",[21],77%
same,"viability, T/C",[22],83.4%
same,"viability, T/C",[23],81.5%
same,"viability, T/C",[24],80.4%
same,"viability, T/C",[25],94.2%
same,"viability, T/C",[26],70.5%
same,"viability, T/C",[27],78.4%
same,"viability, T/C",[28],75.2%
same,"viability, T/C",[29],82%
same,"viability, T/C",[30],76.8%
same,"viability, T/C",[31],81.2%
same,"viability, T/C",[32],76.2%
same,"viability, T/C",[33],74.3%
same,"viability, T/C",[34],65.8%
same,"viability, T/C",[35],78.7%
NS(=O)(=O)OCC1CC(n2ccc3c(NC4CCc5ccccc54)ncnc32)CC1O (centres undefined) + CC(CO)NC(=O)c1cc(-c2ccc(Cl)cc2)nn(-c2cnn(C)c2)c1=O,IC50,[1],> 10 µM
same,IC50,[2],> 10 µM
same,IC50,[3],> 10 µM
same,IC50,[4],> 10 µM
same,IC50,[5],> 10 µM
same,"viability, T/C",[6],89.3%
same,"viability, T/C",[7],89.7%
same,"viability, T/C",[8],101%
same,"viability, T/C",[9],123%
same,"viability, T/C",[10],149%
same,"viability, T/C",[11],155%
same,"viability, T/C",[12],86.1%
same,"viability, T/C",[13],82.3%
same,"viability, T/C",[14],85.7%
same,"viability, T/C",[15],119%
same,"viability, T/C",[16],148%
same,"viability, T/C",[17],156%
same,"viability, T/C",[18],82.3%
same,"viability, T/C",[19],96.7%
same,"viability, T/C",[20],99.2%
same,"viability, T/C",[21],116%
same,"viability, T/C",[22],141%
same,"viability, T/C",[23],143%
same,"viability, T/C",[24],91.1%
same,"viability, T/C",[25],86.1%
same,"viability, T/C",[26],99.2%
same,"viability, T/C",[27],109%
same,"viability, T/C",[28],132%
same,"viability, T/C",[29],136%
same,"viability, T/C",[30],89.5%
same,"viability, T/C",[31],96.1%
same,"viability, T/C",[32],84.8%
same,"viability, T/C",[33],112%
same,"viability, T/C",[34],119%
same,"viability, T/C",[35],129%
